# Experiments:
# MV4-11 tumor cells = assay: MV4-11 xenograft tumor model; format: in vivo, BALB/c nude mice; conditions: oral, daily; vs compound 27 of WO 2016/166250 or vehicle; FIG. 2
# Source text: (§1) FIGS. 1 and 2 show comparison data of compound 4 of the present invention (marked with two asterisks** and diamond) vs. compound 27 of WO2016/166250 (marked with single asterisk* and open square) in mouse models EMT-6 and MV4-11; EMT-6 measures triple inhibition of Axl, Mer and CSF1R. MV4-11 measures inhibition of Axl.
# High expression of Axl or Gas6 in acute myeloid leukemia (AML) patients is prognostic for poor survival outcome. AML cells induce expression and secretion of the Axl ligand Gas6 by bone marrow-derived stromal cells (BMDSCs). Gas6 in turn mediates proliferation, survival, and chemoresistance of Axl-expressing AML cells. This Gas6/Axl paracrine axis between AML cells and BMDSCs establishes a chemoprotective tumor cell niche that can be abrogated by Axl-targeting approaches. […]
# BALB/c nude mice (6-8 week female, Shanghai SIPPR/BK Laboratory Animal Co., LTD.) were inoculated subcutaneously at the upper right flank with MV4-11 tumor cells (1×10^7) in 0.1 mL of PBS+Matrigel (1:1) for tumor development. […] Tumor volumes were measured every 3 days with a digital caliper, and were calculated using the formula: V=0.5a×b^2 where a and b are the long and short diameters of the tumor in mm, respectively. Body weight was measured every 3 days. […] Death and observed clinical signs were recorded on the basis of the numbers of animals within each subset. […]
# EMT-6 tumor cells = assay: EMT-6 syngeneic tumor model; format: in vivo, BALB/c mice; conditions: oral, daily; vs compound 27 of WO 2016/166250 or vehicle; FIG. 1
# Source text: as §1
# In case of CSF1R, it mediates tumorigenesis in tumor-immune microenvironments and is expressed on myeloid cell tumor-associated macrophages (TAMs); elevated serum CSF1, increased numbers of TAMs in tumors, and high expression of tissue CSF1 and/or CSF1R are associated with poor prognosis in patients with various cancers. […] Therefore, EMT-6 is a suitable model for immune-oncology drug efficacy effects through changes in target immune cells.
# BALB/c mice (6-8 week female, Beijing Vital River Laboratory Animal Technology Co., Ltd.) were inoculated subcutaneously at the upper right flank with EMT-6 tumor cells (1×10^6) in 0.1 mL of PBS for tumor development. […] Tumor volumes were measured every 3 days with a digital caliper, and were calculated using the formula: V=0.5a×b^2 where a and b are the long and short diameters of the tumor in mm, respectively. Body weight was measured every 3 days. […] Death and observed clinical signs were recorded on the basis of the numbers of animals within each subset. […]
structure (smiles),measurement,setting,value
CCn1cc(OCC(F)(F)F)c(C(=O)Nc2ccc(Oc3ccnc4cc(OC)c(OC)cc34)cn2)n1 [Compound 4],"tumor growth delay, MV4-11 xenograft model",MV4-11 tumor cells,delay tumor growth to a drastically larger extent
same,"tumor growth delay, EMT-6 syngeneic model",EMT-6 tumor cells,delay tumor growth to a significantly larger extent
